The source of these data is US12545659B2, “IRAK degraders and uses thereof” (Kymera Therapeutics, Inc., priority 2019, dated 2026).

Where two headings read alike, the source gives them in different places.

For series [1] the following is noted: cn_pd bond.
The conditions of series [2]: the molecule shown is the open-chain precursor; cn_pd bond; 14-membered ring; BrettPhos-Pd-G4/BrettPhos/Cs2CO3; dioxane; 53.8 mM; 60.0 °C.
Series [3] has as its target T1, Aiolos (protein product of gene IKZF3) (Homo sapiens, UniProt Q9UKT9).
T1 construct: endogenous in cells; host or cells: OCI-LY10
As to the kind of experiment: Aiolos degradation in OCI-LY10 (quantitative immunoblotting). Format: cell-based. As to conditions: OCI-LY10 cells, 6 h, immunoblot relative to actin. The procedure:
(§1) Degradation of Ikaros (protein product of gene IKZF1) and Aiolos (protein product of gene IKZF3) were determined by quantitative immunoblotting as follows. OCI-LY10 cells, 2×10^6 cells/well, were treated with listed concentrations of IRAK4 degraders or control compounds in 6 well plates for 6 h. Cells were collected, washed with cold PBS, lysed in RIPA buffer (Boston BioProducts BP-115D) with protease/phosphatase inhibitor cocktail (Roche 05892791001/Roche 04906837001) and centrifuged at 13000 RPM for 20 min to precipitate insoluble material. The supernatant fraction was diluted in SDS-PAGE loading buffer (Beyotime Bio P0015) and 20 L of each sample was resolved on 4-12% Bis-Tris SDS-PAGE gels (Novex, WG1402BOX). Resolved samples were transferred to nitrocellulose membranes by wet electro-transfer method at […] for 1.5 h. The membrane was blocked with LICOR blocking buffer (LI-COR, 927-50000) for 1 hour, washed three times with TBST (CST #9997S) for 5 minutes each and incubated with primary antibody prepared in block buffer with 0.1% Tween-20 (Solarbio, P8220) at 4° C. overnight. Ikaros antibody was rabbit monoclonal D6N9Y (CST #14859), at 1:1000 dilution. Aiolos antibody was rabbit monoclonal D1C1E (CST #15103), at 1:1000 dilution. Signal was normalized to mouse anti-beta-Actin monoclonal 8H10D10 (CST #3700) used at 1:10,000 dilution. After incubation in primary antibodies, membranes were washed three times with TBST, 5 minutes each, incubated with fluorescently labeled secondary antibodies anti-rabbit IgG (Licor, 926-32211) at 1:5000 dilution; anti-mouse IgG (LI-COR, 926-68070) at 1:5000 dilution, for 1 hour at RT. After incubation in secondary, membranes were washed three times with TBST, 5 minutes each and read on LICOR Odyssey imager. Data was reported as signal for Ikaros or Aiolos relative to signal for actin, and normalized to DMSO-treated control.
(§2) The letter codes for Ikaros and Aiolos DC50 include: A (<0.05 μM); B (0.05-0.1 μM); C (0.1-0.5 μM); D (0.5-1.0 μM); and E (>1.0 μM).

Series [4] deals with T2, Ikaros (protein product of gene IKZF1) (Homo sapiens, UniProt Q13422+Q96SW2).
T2 construct: endogenous in cells; host or cells: OCI-LY10
T2 sequence (Q13422 whole entry): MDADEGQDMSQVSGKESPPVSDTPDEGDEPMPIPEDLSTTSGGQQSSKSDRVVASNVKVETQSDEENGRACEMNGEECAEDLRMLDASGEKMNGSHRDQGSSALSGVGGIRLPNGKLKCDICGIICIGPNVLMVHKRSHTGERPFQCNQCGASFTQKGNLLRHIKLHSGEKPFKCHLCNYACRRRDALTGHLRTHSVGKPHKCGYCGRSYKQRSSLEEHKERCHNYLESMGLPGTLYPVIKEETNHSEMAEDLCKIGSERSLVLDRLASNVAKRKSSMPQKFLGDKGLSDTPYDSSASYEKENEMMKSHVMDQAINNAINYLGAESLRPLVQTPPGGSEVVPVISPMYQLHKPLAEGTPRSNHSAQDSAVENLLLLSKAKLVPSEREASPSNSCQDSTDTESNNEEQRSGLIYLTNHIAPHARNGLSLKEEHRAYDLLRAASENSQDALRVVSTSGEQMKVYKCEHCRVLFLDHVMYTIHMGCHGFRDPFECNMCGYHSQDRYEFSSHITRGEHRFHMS
T2 sequence (Q96SW2 whole entry): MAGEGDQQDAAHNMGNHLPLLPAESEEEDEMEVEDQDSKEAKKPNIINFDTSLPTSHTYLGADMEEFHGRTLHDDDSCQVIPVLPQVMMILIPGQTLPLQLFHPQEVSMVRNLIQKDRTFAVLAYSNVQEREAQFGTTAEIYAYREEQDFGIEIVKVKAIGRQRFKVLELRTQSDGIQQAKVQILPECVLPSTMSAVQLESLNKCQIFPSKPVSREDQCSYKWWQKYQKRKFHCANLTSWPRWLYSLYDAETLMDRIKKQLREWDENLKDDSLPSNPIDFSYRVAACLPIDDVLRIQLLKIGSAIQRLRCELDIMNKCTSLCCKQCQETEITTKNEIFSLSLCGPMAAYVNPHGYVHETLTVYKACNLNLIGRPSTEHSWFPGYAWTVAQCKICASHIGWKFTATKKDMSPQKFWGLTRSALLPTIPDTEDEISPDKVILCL
T2 sequence (Q16531 whole entry partner): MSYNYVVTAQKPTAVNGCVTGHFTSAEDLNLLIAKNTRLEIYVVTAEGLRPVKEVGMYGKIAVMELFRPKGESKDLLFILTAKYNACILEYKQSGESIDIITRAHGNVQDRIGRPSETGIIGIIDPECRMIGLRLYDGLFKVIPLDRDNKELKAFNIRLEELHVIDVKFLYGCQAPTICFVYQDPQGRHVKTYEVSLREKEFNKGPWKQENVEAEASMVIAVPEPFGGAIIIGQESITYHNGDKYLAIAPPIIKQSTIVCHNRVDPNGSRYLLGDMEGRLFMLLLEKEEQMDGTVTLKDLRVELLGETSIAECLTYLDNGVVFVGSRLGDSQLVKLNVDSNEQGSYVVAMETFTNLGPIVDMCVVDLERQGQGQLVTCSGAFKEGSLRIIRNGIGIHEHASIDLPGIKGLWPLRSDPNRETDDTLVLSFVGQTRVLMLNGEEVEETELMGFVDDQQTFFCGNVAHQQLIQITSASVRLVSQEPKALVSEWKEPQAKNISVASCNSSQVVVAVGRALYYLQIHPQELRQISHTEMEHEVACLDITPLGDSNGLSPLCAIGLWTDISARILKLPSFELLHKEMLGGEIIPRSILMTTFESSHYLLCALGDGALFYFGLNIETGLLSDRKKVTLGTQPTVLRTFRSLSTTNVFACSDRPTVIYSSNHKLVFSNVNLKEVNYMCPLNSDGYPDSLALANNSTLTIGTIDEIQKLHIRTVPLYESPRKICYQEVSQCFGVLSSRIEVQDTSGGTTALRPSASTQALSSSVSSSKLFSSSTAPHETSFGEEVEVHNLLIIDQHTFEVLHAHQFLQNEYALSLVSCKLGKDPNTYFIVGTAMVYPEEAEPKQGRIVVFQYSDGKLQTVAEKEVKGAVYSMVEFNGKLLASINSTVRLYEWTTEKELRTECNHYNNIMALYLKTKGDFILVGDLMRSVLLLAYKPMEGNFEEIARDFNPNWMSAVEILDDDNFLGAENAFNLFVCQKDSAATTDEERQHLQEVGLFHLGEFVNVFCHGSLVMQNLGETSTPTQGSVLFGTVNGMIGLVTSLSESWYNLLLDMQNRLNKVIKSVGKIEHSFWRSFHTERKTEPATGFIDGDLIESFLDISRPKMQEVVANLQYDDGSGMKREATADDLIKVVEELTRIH
In words: Ikaros degradation in OCI-LY10 (quantitative immunoblotting). As to conditions: OCI-LY10 cells, 6 h, immunoblot relative to actin; read-out: Ikros Degradation in OCI-LY10: DC50. It is filed as cell-based. Here is the method: as §1, §2
In general terms: Immunoblotting shows a protein as a band on a membrane.

Another series relates to SUDHL-2 cells. In words: CTG Cell Viability Assay - SUDHL-2. It is filed as cell-based. As to conditions: Homo sapiens, SU-DHL-2, 96 h. The procedure:
(§3) Compound-mediated viability effect on OCI-LY10 or SUDHL-2 was quantitatively determined using the CellTiter-Glo® Luminescent Cell Viability Assay kit from Promega (Catalog number G7570) following manufacturer's recommended procedures. Briefly, OCI-LY10 or SUDHL-2 cells were seeded into 384 well plates (Grenier Bio-One, Catalog number 781080) with a density of 10,000 cells per well. Compounds were then added to the assay plate with final top concentration of 10 M and 1:3 dilution series with total of 9 doses. The final DMSO concentration was normalized to 0.2%. The assay plates were incubated at 37° C. for 4 days under 5% CO2. Then the assay plate was equilibrated at room temperature for 10 minutes. To determine cell viability, L CellTiter Glo reagent was added to each well and the assay plate was centrifuged at 1000 rpm for 30 second, incubated at room temperature for 10 min, and analyzed by detecting the luminescence using a multimode plate reader (EnVision 2105, PerkinElmer). The data was then analyzed by software Prism 7.0 from GraphPad and the dose response curves were fit using a three-parameter logistic equation to calculate IC50.

Another series has as its system OCI-LY10 cells. As to the kind of experiment: CTG Cell Viability Assay - OCI-LY10. It is filed as cell-based. As to conditions: Homo sapiens. Here is the method: as §3
Another series addresses T3, IRAK4 (Homo sapiens, UniProt Q9NWZ3).
T3 construct: endogenous in cells; host or cells: OCI-LY10
T3 sequence (Q9NWZ3 1-460): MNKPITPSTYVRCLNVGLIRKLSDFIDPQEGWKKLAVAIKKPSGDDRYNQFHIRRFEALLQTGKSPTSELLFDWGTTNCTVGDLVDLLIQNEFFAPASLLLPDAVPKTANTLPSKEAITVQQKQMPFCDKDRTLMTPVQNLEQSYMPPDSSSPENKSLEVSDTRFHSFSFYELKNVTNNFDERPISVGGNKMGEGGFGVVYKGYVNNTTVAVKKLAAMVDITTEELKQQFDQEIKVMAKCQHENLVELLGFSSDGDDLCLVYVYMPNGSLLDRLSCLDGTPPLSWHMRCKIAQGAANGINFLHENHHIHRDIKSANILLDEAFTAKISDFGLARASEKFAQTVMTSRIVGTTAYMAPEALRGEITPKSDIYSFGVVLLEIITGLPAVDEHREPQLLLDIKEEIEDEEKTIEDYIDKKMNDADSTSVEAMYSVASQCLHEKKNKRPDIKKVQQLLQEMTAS
In words: IRAK4 MSD Degradation in OCI-LY10. Format: cell-based. As to conditions: OCI-LY10 cells. In short, it runs like this:
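IRAK4 remaining in lysates was read by Meso Scale electrochemiluminescence sandwich (2H9 capture, Y279 plus SULFO-TAG detection). Cells were exposed 4 to 24 h at 37 °C to eight 3-fold dilutions from 1 to 10 μM final top; three-parameter logistic fit gave DC50.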

[5] abbreviates: SUDHL-2 cells, 4 days, CellTiter-Glo, read-out: CTG Cell Viability Assay - SUDHL-2: IC50.
Where [6] appears, read: 96 h, OCI-LY10 cells, 4 days, CellTiter-Glo, read-out: CTG Cell Viability Assay - OCI-LY10: IC50.
The mark [7] stands for this setting: 4 hrs incubation, read-out: IRAK4 degradation in OCI-LY10 at 4 hrs: DC50.
Setting [8] is: 24 hrs incubation, read-out: IRAK4 degradation in OCI-LY10 at 24 hrs: DC50.

T1 sequence (Q9UKT9 whole entry): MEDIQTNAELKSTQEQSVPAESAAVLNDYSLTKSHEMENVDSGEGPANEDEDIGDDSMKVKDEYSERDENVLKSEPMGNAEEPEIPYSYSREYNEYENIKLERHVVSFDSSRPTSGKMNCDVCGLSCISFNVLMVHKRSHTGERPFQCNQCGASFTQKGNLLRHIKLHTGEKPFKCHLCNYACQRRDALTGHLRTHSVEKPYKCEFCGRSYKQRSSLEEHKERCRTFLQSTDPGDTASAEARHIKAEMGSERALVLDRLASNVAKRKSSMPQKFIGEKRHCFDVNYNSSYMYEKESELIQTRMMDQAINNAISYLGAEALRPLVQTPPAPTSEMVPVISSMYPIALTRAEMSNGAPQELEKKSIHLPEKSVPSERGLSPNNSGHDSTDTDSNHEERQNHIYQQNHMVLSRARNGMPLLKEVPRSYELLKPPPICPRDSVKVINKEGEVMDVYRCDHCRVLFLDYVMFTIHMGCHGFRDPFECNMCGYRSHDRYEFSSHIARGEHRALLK
T1 sequence (Q96SW2 whole entry, further chain): as the sequence (Q96SW2 whole entry) above
T1 sequence (Q16531 whole entry partner): as the sequence (Q16531 whole entry partner) above

As to `NC(=O)c1cccc(OCCCCCOc2cc3nn(C4CCC(CO)CC4)cc3cc2Br)n1` (centres unmarked), the ring closure, isolated yield in series [1] (the molecule shown is the open-chain precursor, 14-membered ring, BrettPhos Pd G4/Cs2CO3, DMA, 9.4 mM, 80.0 °C) stood at 39%.

In series [2], `NC(=O)c1cccc(OCCO[C@@H]2CCN(c3cc4nn(C5CCC(CO)CC5)cc4cc3Br)C2)c1` (some centres unmarked) had a ring closure, yield after HPLC of 31%.

`NC(=O)c1cccc(OCCO[C@H]2CCN(c3cc4nn(C5CCC(CO)CC5)cc4cc3Br)C2)c1` (some centres unmarked) yielded a ring closure, isolated yield in series [1] (the molecule shown is the open-chain precursor, 14-membered ring, BrettPhos Pd G3/Cs2CO3, DMA, 100.0 mM, 90.0 °C) of 33%.

“12-((1R,4R)-4-(hydroxymethyl)cyclohexyl)-12H-5,10-dioxa-2-aza-1(5,6)-indazola-4(2,6)-pyridinacyclodecaphan-3-one” returned a ring closure, isolated yield in series [1] (13-membered ring, Pd2(dba)3/Xantphos/Cs2CO3, dioxane, 18.1 mM, 80.0 °C) of 55%.

For `COc1cc2nn([C@H]3CC[C@H](CN4CC5(CC(CCNc6cccc7c6C(=O)N(C6CCC(=O)NC6=O)C7=O)C5)C4)CC3)cc2cc1NC(=O)c1cccc(C(C)(F)F)n1` (mixture of isomers) [I-93, 6-(1,1-difluoroethyl)-N-[2-[4-[[6-[2-[[2-(2,6-dioxo-3-piperidyl)-1,3-dioxo-isoindolin-4-yl]amino]ethyl]-2-azaspiro[3.3]heptan-2-yl]methyl]cyclohexyl]-6-methoxy-indazol-5-yl]pyridine-2-carboxamide], the DC50 (in general, the midpoint of the concentration-degradation curve) is less than 50 nM in series [3], less than 50 nM in series [4], less than 50 nM at IRAK4 (setting [7]) and 50 to 100 nM on IRAK4 (setting [8]). Further, the half-maximal inhibitory concentration (IC50) (as a rule, the concentration at which inhibition is half-maximal) is 0.1 to 0.5 µM with SUDHL-2 cells (setting [5]) and less than 0.05 µM with OCI-LY10 cells (setting [6]).

As for `COc1cc2nn([C@H]3CC[C@H](CN4CCC5(CC4)CC(CCNc4cccc6c4C(=O)N(C4CCC(=O)NC4=O)C6=O)C5)CC3)cc2cc1NC(=O)c1cccc(C(C)(F)F)n1` (some centres unmarked) [I-63, 6-(1,1-Difluoroethyl)-N-[2-[4-[[2-[2-[[2-(2,6-dioxo-3-piperidyl)-1,3-dioxo-isoindolin-4-yl]amino]ethyl]-7-azaspiro[3.5]nonan-7-yl]methyl]cyclohexyl]-6-methoxy-indazol-5-yl]pyridine-2-carboxamide], the half-maximal degradation concentration (DC50) in series [3] is less than 50 nM; in series [4], less than 50 nM; on IRAK4 (setting [7]), less than 50 nM; on IRAK4 (setting [8]), 50 to 100 nM. Besides, the IC50 in the series on SUDHL-2 cells (read-out: CTG Cell Viability Assay - SUDHL-2: IC50 (μM)) was in the range of 0.1 to 0.5 µM; in the series on OCI-LY10 cells (OCI-Ly10, 96 h, read-out: CTG Cell Viability Assay - OCI-LY10: IC50 (μM)), 0.05 to 0.1 µM.

As for `COc1cc2nn([C@H]3CC[C@H](CN4CCC5(CC4)CC(CNc4cccc6c4C(=O)N(C4CCC(=O)NC4=O)C6=O)C5)CC3)cc2cc1NC(=O)c1cccc(C(F)(F)F)n1` (some centres unmarked) [I-201, N-[2-[4-[[2-[[[2-(2,6-dioxo-3-piperidyl)-1,3-dioxo-isoindolin-4 yl]amino]methyl]-7-azaspiro[3.5]nonan-7-yl]methyl]cyclohexyl]-6-methoxy-indazol-5-yl]-6-(trifluoromethyl)pyridine-2-carboxamide], the DC50 in series [3] was less than 50 nM; in series [4] it was 50 to 100 nM; on IRAK4 (setting [7]), less than 50 nM; at IRAK4 (setting [8]), 50 to 100 nM. The IC50 with SUDHL-2 cells (setting [5]) is more than 1 µM; with OCI-LY10 cells (setting [6]), less than 0.05 µM.

For the compound `COc1cc2nn([C@H]3CC[C@H](CN(C)C4CCN(c5cccc6c5n(C)c(=O)n6C5CCC(=O)NC5=O)CC4)CC3)cc2cc1NC(=O)c1cccc(C(F)(F)F)n1` (some centres unmarked) [I-247, N-[2-[4-[[[1-[1-(2,6-dioxo-3-piperidyl)-3-methyl-2-oxo-benzimidazol-4-yl]-4-piperidyl]-methyl-amino]methyl]cyclohexyl]-6-methoxy-indazol-5-yl]-6-(trifluoromethyl)pyridine-2-carboxamide], the IC50 with OCI-LY10 cells (setting [6]) was more than 1 µM. The half-maximal degradation concentration (DC50) at IRAK4 (setting [7]) was less than 50 nM.

Turning to `COc1cc2nn([C@H]3CC[C@H](CN4CCC(c5cccc6c5n(C)c(=O)n6C5CCC(=O)NC5=O)CC4)CC3)cc2cc1NC(=O)c1coc(C)n1` (some centres unmarked) [I-325], on IRAK4 (setting [7]), the half-maximal degradation concentration (DC50) was less than 50 nM.

`C[C@]1(CN2CCC3(CC2)CC(CCNc2cccc4c2C(=O)N(C2CCC(=O)NC2=O)C4=O)C3)Cc2cc(NC(=O)c3cccc(C(F)(F)F)n3)c(N3CCOCC3)cc2O1` (stereo partly drawn) [I-326, N-[(2R)-2-[[2-[2-[[2-(2,6-dioxo-3-piperidyl)-1,3-dioxo-isoindolin-4-yl]amino]ethyl]-7-azaspiro[3.5]nonan-7-yl]methyl]-2-methyl-6-morpholino-3H-benzofuran-5-yl]-6-(trifluoromethyl)pyridine-2-carboxamide]: at IRAK4 (setting [8]), the 50% degradation concentration (DC50) is 500 to 1000 nM.

In the case of `COc1cc2nn([C@H]3CC[C@H](CN4CCC(c5cccc6c5n(C)c(=O)n6C5CCC(=O)NC5=O)CC4)CC3)cc2cc1NC(=O)c1cnccn1` (some centres unmarked) [I-327], the 50% degradation concentration (DC50) at IRAK4 (setting [7]) is less than 50 nM.

In the case of `COc1cc2nn([C@H]3CC[C@H](CN4CCC(c5cccc6c5n(C)c(=O)n6C5CCC(=O)NC5=O)CC4)CC3)cc2cc1NC(=O)c1cccc(C)n1` (some centres unmarked) [I-328], the DC50 on IRAK4 (setting [7]) was less than 50 nM.

Turning to `COc1cc2nn([C@H]3CC[C@H](CN(C)C4CCN(c5cccc6c5n(C)c(=O)n6C5CCC(=O)NC5=O)CC4)CC3)cc2cc1NC(=O)c1ccccn1` (some centres unmarked) [I-329], the DC50 on IRAK4 (setting [7]) was less than 50 nM.

Regarding `CN(CCCO[C@H]1C[C@H](Nc2cccc3c2C(=O)N(C2CCC(=O)NC2=O)C3=O)C1)C[C@]1(C)Cc2cc(NC(=O)c3cccc(C(F)(F)F)n3)c(N3CCOCC3)cc2O1` (stereo partly drawn) [I-330, N-[(2S)-2-[[3-[3-[[2-(2,6-dioxo-3-piperidyl)-1,3-dioxo-isoindolin-4-yl]amino]cyclobutoxy]propyl-methyl-amino]methyl]-2-methyl-6-morpholino-3H-benzofuran-5-yl]-6-(trifluoromethyl)pyridine-2-carboxamide], on IRAK4 (setting [8]), the half-maximal degradation concentration (DC50) was in the range of 500 to 1000 nM.

For `COc1cc2c(cc1NC(=O)c1cccc(C(F)(F)F)n1)CN([C@H]1CC[C@H](CN3CC4(CC(CCNc5cccc6c5C(=O)N(C5CCC(=O)NC5=O)C6=O)C4)C3)CC1)C2=O` (some centres unmarked) [I-331], the half-maximal degradation concentration (DC50) at IRAK4 (setting [8]) lay in the range of 50 to 100 nM.

Regarding `COc1cc2nn([C@H]3CC[C@H](CN4CC5(CC([C@H](C)CNc6cccc7c6C(=O)N(C6CCC(=O)NC6=O)C7=O)C5)C4)CC3)cc2cc1NC(=O)c1cccc(C(F)(F)F)n1` (some centres unmarked) [I-332], the 50% degradation concentration (DC50) at IRAK4 (setting [8]) is less than 50 nM.
